Assay results from ChEMBL document CHEMBL1201862, “PubChem BioAssay data set” (2004).
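Grown in 96-well plates, cells were treated for 48 hours with each compound at five concentrations. Insufficient inhibition: endpoint recorded as highest concentration tested. GI50 is the concentration that inhibits growth by half.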 Activity calls are given as the source filed them. Cut-off read from the data, not from the text of the source: active = GI50 up to about 1.1 µM and inactive = higher. Square brackets hold non-standard residues; d marks the D form. Peptide text beside a SMILES is read from it. * marks the point of attachment. X26 = COC1=CC(=O)N(C(=O)[C@@H](O*)C(C)C)[C@H]1Cc1ccccc1; NMeV = CN[C@H](C(=O)O)C(C)C; Hexanoyl = CCCCCC(=O)*

Key:
Assay in all cases: NCI-60 cell line screen, 48 h
A498 = tested on: A498
ACHN = tested on: ACHN
CCRF-CEM = tested on: CCRF-CEM
HCC 2998 = tested on: HCC 2998
HOP-92 = tested on: HOP-92
KM12 = tested on: KM12
LOX IMVI = tested on: LOX IMVI
MCF7 = tested on: MCF7
MDA-MB-435 = tested on: MDA-MB-435
MOLT-4 = tested on: MOLT-4
Malme-3M = tested on: Malme-3M
NCI-H23 = tested on: NCI-H23
NCI-H460 = tested on: NCI-H460
OVCAR-3 = tested on: OVCAR-3
OVCAR-4 = tested on: OVCAR-4
SW-620 = tested on: SW-620
UO-31 = tested on: UO-31
SF-539 = tested on: SF-539
SK-MEL-28 = tested on: SK-MEL-28
SR = tested on: SR

Measured: GI50

OCC1OC(n2cnc3c(Cl)nc(Nc4ccc(Cl)c(Cl)c4)nc32)CC1O (centres undefined)
inactive: A498 10.7 µM | ACHN 8.69 µM | CCRF-CEM 8.65 µM | HCC 2998 7.8 µM | HOP-92 8.18 µM | KM12 8.83 µM | LOX IMVI 7.78 µM | MCF7 11 µM | MDA-MB-435 9.38 µM | MOLT-4 5.02 µM | Malme-3M 12 µM | NCI-H23 10.2 µM | NCI-H460 7.91 µM | OVCAR-3 12.2 µM | OVCAR-4 10.1 µM | SW-620 11.9 µM | UO-31 11.6 µM

O=C1C=C(c2c(-c3ccccc3)[nH]c3ccccc23)C(=O)N1c1ccccc1
inactive: A498 10.6 µM | ACHN 13.9 µM | CCRF-CEM 4.02 µM | HCC 2998 7.94 µM | HOP-92 9.14 µM | LOX IMVI 3.77 µM | MCF7 6.19 µM | MDA-MB-435 4.02 µM | MOLT-4 25.2 µM | Malme-3M 11.5 µM | NCI-H23 10.7 µM | NCI-H460 14.6 µM | OVCAR-3 4.41 µM | SF-539 8.24 µM | SK-MEL-28 13.3 µM | SW-620 5.12 µM | UO-31 13.9 µM

COc1ccc(Nc2nnc(CCCCCCCCc3nnc(Nc4ccc(OC)cc4)o3)o2)cc1
inactive: A498 > 100 µM | ACHN > 100 µM | CCRF-CEM > 100 µM | HCC 2998 > 100 µM | HOP-92 > 100 µM | KM12 > 100 µM | LOX IMVI > 100 µM | MCF7 > 100 µM | MDA-MB-435 > 100 µM | MOLT-4 > 100 µM | Malme-3M > 100 µM | NCI-H23 > 100 µM | NCI-H460 > 100 µM | OVCAR-3 > 100 µM | OVCAR-4 > 100 µM | SF-539 > 100 µM | SK-MEL-28 > 100 µM | SW-620 > 100 µM | UO-31 > 100 µM

COc1ccc(Nc2nc3ccc(C(F)(F)F)cc3nc2C(=O)O)cc1
inactive: A498 16.7 µM | CCRF-CEM 27 µM | HCC 2998 24 µM | HOP-92 29.6 µM | KM12 23.5 µM | LOX IMVI 32.5 µM | MCF7 36.6 µM | MDA-MB-435 34.3 µM | MOLT-4 29.5 µM | Malme-3M 36.6 µM | NCI-H23 20.6 µM | NCI-H460 26 µM | OVCAR-3 19.9 µM | OVCAR-4 47.8 µM | SF-539 23.9 µM | SK-MEL-28 30.6 µM | SW-620 38.4 µM

O=C(NCCCCN(CCCNC(=O)C(F)(F)F)Cc1ccccc1)C(F)(F)F
inactive: A498 > 100 µM | ACHN > 100 µM | CCRF-CEM > 100 µM | HCC 2998 > 100 µM | HOP-92 > 100 µM | KM12 > 100 µM | MCF7 > 100 µM | MDA-MB-435 > 100 µM | MOLT-4 > 100 µM | NCI-H23 > 100 µM | NCI-H460 > 100 µM | OVCAR-3 > 100 µM | OVCAR-4 > 100 µM | SF-539 > 100 µM | SK-MEL-28 > 100 µM | SW-620 > 100 µM | UO-31 > 100 µM

Nc1ccccc1N/C=C\C(=O)C(Cl)(Cl)Cl
inactive: A498 18.8 µM | ACHN 16.3 µM | CCRF-CEM 4.26 µM | HCC 2998 16.6 µM | HOP-92 19 µM | KM12 15.5 µM | LOX IMVI 15.9 µM | MCF7 14.5 µM | MDA-MB-435 14.8 µM | MOLT-4 11 µM | Malme-3M 33.2 µM | NCI-H23 22.7 µM | NCI-H460 31.3 µM | OVCAR-4 19.5 µM | SF-539 28.4 µM | SK-MEL-28 17.5 µM | SW-620 16.7 µM | UO-31 19.2 µM

CCCCCC(=O)N[C@H](C(=O)N[C@H](C(=O)N(C)[C@H](C(=O)N1CCC[C@H]1C(=O)N1CCC[C@H]1C(=O)O[C@H](C(=O)N1C(=O)C=C(OC)[C@@H]1Cc1ccccc1)C(C)C)C(C)C)C(C)C)C(C)C (Hexanoyl-VV[NMeV]PP-X26)
inactive: A498 46.3 µM | ACHN > 100 µM | CCRF-CEM 48.6 µM | HCC 2998 > 100 µM | HOP-92 36.2 µM | KM12 > 100 µM | LOX IMVI > 100 µM | MCF7 59.2 µM | MDA-MB-435 36.2 µM | MOLT-4 63 µM | Malme-3M > 100 µM | NCI-H23 > 100 µM | NCI-H460 > 100 µM | OVCAR-3 > 100 µM | OVCAR-4 > 100 µM | SF-539 36.9 µM | SK-MEL-28 > 100 µM | SW-620 > 100 µM | UO-31 40 µM

COC[C@@H](/N=C/c1ccc(OC)cc1)C(C)C
inactive: ACHN > 100 µM | CCRF-CEM > 100 µM | KM12 > 100 µM | LOX IMVI > 100 µM | MCF7 > 100 µM | MDA-MB-435 > 100 µM | MOLT-4 > 100 µM | Malme-3M > 100 µM | NCI-H23 > 100 µM | NCI-H460 > 100 µM | OVCAR-4 > 100 µM | SK-MEL-28 > 100 µM | SR > 100 µM | SW-620 > 100 µM | UO-31 > 100 µM
